# Biological target: Full length human TBK1 (Homo sapiens (Human), UniProt Q9UHD2)
# Assay: Inhibition of TBK1 Enzyme (Example A)
# Format: biochemical
# Details: -log(IC50), IC50 molar; 3 nM TBK1, 25 μM ATP, 60 min RT
# Method in brief: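 Full-length N-His human TBK1 from Sf9 baculovirus was tested with 11-point 2.5-fold dilutions (1% DMSO) in Hepes pH 7.4, MgCl2, EDTA, Brij, DTT. After 60 min RT and EDTA quench, microfluidic conversion was fitted and reported as pIC50.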
# Sequence of Full length human TBK1 (Q9UHD2 whole entry): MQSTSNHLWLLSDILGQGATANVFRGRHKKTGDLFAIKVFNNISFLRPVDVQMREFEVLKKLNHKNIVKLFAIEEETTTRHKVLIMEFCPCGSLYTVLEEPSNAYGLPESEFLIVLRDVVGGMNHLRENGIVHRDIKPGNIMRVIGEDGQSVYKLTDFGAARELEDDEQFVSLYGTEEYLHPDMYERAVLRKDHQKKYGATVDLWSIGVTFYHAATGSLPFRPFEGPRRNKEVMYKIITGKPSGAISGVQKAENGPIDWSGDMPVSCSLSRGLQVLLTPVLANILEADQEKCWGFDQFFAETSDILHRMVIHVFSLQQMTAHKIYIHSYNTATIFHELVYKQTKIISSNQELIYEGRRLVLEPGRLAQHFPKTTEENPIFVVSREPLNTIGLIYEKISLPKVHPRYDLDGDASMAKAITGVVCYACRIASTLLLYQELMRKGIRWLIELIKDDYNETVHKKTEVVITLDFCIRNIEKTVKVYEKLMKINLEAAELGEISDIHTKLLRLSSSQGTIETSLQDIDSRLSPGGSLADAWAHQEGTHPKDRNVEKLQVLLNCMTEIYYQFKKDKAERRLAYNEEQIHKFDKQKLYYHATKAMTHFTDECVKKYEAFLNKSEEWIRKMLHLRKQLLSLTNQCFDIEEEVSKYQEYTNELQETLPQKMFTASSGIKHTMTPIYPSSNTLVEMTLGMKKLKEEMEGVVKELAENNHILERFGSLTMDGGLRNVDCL
row,SMILES,TBK1 Inhibition (pIC50)
1,"N#Cc1ncc(-c2cnc(NC(=O)C3CC3)cn2)cc1NCC(=O)N1CCC1C(F)(F)F (centres unmarked) [Example 94, N-(5-(6-cyano-5-((2-oxo-2-(2-(trifluoromethyl)azetidin-1-yl)ethyl)amino)pyridin-3-yl)pyrazin-2-yl)cyclopropanecarboxamide]",7.3
2,"CN1CCN(C(=O)CNc2cc(-c3cnc(NC(=O)C4CC4)cn3)cnc2C#N)CC1 [Example 97, N-(5-(6-cyano-5-((2-(4-methylpiperazin-1-yl)-2-oxoethyl)amino)pyridin-3-yl)pyrazin-2-yl)cyclopropanecarboxamide]",5.5
3,"COCCN1CCN(C(=O)CNc2cc(-c3cnc(NC(=O)C4CC4)cn3)cnc2C#N)CC1 [Example 98, N-(5-(6-cyano-5-((2-(4-(2-methoxyethyl)piperazin-1-yl)-2-oxoethyl)amino)pyridin-3-yl)pyrazin-2-yl)cyclopropanecarboxamide]",5.1
4,"CC(=O)N1CCN(C(=O)CNc2cc(-c3cnc(NC(=O)C4CC4)cn3)cnc2C#N)CC1 [Example 99, N-(5-(5-((2-(4-acetylpiperazin-1-yl)-2-oxoethyl)amino)-6-cyanopyridin-3-yl)pyrazin-2-yl)cyclopropanecarboxamide]",6.0
5,"N#Cc1ncc(-c2cnc(NC(=O)C3CC3)cn2)cc1NCC(=O)N1CCOC(C(F)(F)F)C1 (centres unmarked) [Example 100, N-(5-(6-cyano-5-((2-oxo-2-(2-(trifluoromethyl)morpholino)ethyl)amino)pyridin-3-yl)pyrazin-2-yl)cyclopropanecarboxamide]",6.5
6,"N#Cc1ncc(-c2cnc(NC(=O)C3CC3)cn2)cc1NCC(=O)N1CCC(C#N)C1 (centres unmarked) [Example 102, N-(5-(6-cyano-5-((2-(3-cyanopyrrolidin-1-yl)-2-oxoethyl)amino)pyridin-3-yl)pyrazin-2-yl)cyclopropanecarboxamide]",6.6
7,"CC1CN(C(=O)CNc2cc(-c3cnc(NC(=O)C4CC4)cn3)cnc2C#N)CCO1 (centres unmarked) [Example 103, N-(5-(6-cyano-5-((2-(2-methylmorpholino)-2-oxoethyl)amino)pyridin-3-yl)pyrazin-2-yl)cyclopropanecarboxamide]",6.8
8,"N#Cc1ncc(-c2cnc(NC(=O)C3CC3)cn2)cc1NCC(=O)N1CC2(COC2)C1 [Example 104, N-(5-(6-cyano-5-((2-oxo-2-(2-oxa-6-azaspiro[3.3]heptan-6-yl)ethyl)amino)pyridin-3-yl)pyrazin-2-yl)cyclopropanecarboxamide]",5.4
9,"CN1CC(N(C)C(=O)CNc2cc(-c3cnc(NC(=O)C4CC4)cn3)cnc2C#N)C1 [Example 105, N-(5-(6-cyano-5-((2-(methyl(1-methylazetidin-3-yl)amino)-2-oxoethyl)amino)pyridin-3-yl)pyrazin-2-yl)cyclopropanecarboxamide]",5.6
10,"C[C@H](Nc1cc(-c2cnc(NC(=O)[C@H]3C[C@@H]3C)cn2)cnc1C#N)C(=O)N(C)C [Example 106, (1S,2S)-N-(5-(6-cyano-5-(((S)-1-(dimethylamino)-1-oxopropan-2-yl)amino)pyridin-3-yl)pyrazin-2-yl)-2-methylcyclopropanecarboxamide]",7.4
11,"C[C@H](Nc1cc(-c2cnc(NC(=O)[C@@H]3C[C@H]3C)cn2)cnc1C#N)C(=O)N(C)C [Example 107, (1R,2R)-N-(5-(6-cyano-5-(((S)-1-(dimethylamino)-1-oxopropan-2-yl)amino)pyridin-3-yl)pyrazin-2-yl)-2-methylcyclopropanecarboxamide]",7.8
12,"C[C@H](Nc1cc(-c2cnc(NC(=O)[C@@H]3C[C@@H]3C)cn2)cnc1C#N)C(=O)N(C)C [Example 108, (1R,2S)-N-(5-(6-cyano-5-(((S)-1-(dimethylamino)-1-oxopropan-2-yl)amino)pyridin-3-yl)pyrazin-2-yl)-2-methylcyclopropanecarboxamide]",7.7
13,"C[C@H](Nc1cc(-c2cnc(NC(=O)[C@H]3C[C@H]3C)cn2)cnc1C#N)C(=O)N(C)C [Example 109, (1S,2R)-N-(5-(6-cyano-5-(((S)-1-(dimethylamino)-1-oxopropan-2-yl)amino)pyridin-3-yl)pyrazin-2-yl)-2-methylcyclopropanecarboxamide]",7.2
14,"CC(O)CN(CC(F)(F)F)C(=O)CNc1cc(-c2cnc(NC(=O)C3CC3)cn2)cnc1C#N (centres unmarked) [Example 110, N-(5-(6-cyano-5-((2-((2-hydroxypropyl)(2,2,2-trifluoroethyl)amino)-2-oxoethyl)amino)pyridin-3-yl)pyrazin-2-yl)cyclopropanecarboxamide]",7.5
15,"CC(C)(O)CN(CC(F)(F)F)C(=O)CNc1cc(-c2cnc(NC(=O)C3CC3)cn2)cnc1C#N [Example 111, N-(5-(6-cyano-5-((2-((2-hydroxy-2-methylpropyl)(2,2,2-trifluoroethyl)amino)-2-oxoethyl)amino)pyridin-3-yl)pyrazin-2-yl)cyclopropanecarboxamide]",6.6
16,"CCN(C)C(=O)[C@H](C)Nc1cc(-c2cnc(NC(=O)C3CC3)cn2)cnc1C#N [Example 112, (S)-N-(5-(6-cyano-5-((1-(ethyl(methyl)amino)-1-oxopropan-2-yl)amino)pyridin-3-yl)pyrazin-2-yl)cyclopropanecarboxamide]",7.7
17,"N#Cc1ncc(-c2cnc(NC(=O)C3CC3)cn2)cc1NCC(=O)N1C[C@H](CO)C[C@H]1C(F)(F)F [Example 113, N-(5-(6-cyano-5-((2-((2S,4R)-4-(hydroxymethyl)-2-(trifluoromethyl)pyrrolidin-1-yl)-2-oxoethyl)amino)pyridin-3-yl)pyrazin-2-yl)cyclopropanecarboxamide]",7.6
18,"C[C@H](Nc1cc(-c2cnc(NC(=O)C3CC3)cn2)cnc1C#N)C(=O)NCC(F)F [Example 114, (S)-N-(5-(6-cyano-5-((1-((2,2-difluoroethyl)amino)-1-oxopropan-2-yl)amino)pyridin-3-yl)pyrazin-2-yl)cyclopropanecarboxamide]",7.7
19,"CN(C)C(=O)C(CCO)Nc1cc(-c2cnc(NC(=O)C3CC3)cn2)cnc1C#N (centres unmarked) [Example 115, N-(5-(6-cyano-5-((1-(dimethylamino)-4-hydroxy-1-oxobutan-2-yl)amino)pyridin-3-yl)pyrazin-2-yl)cyclopropanecarboxamide]",6.9
20,"C[C@H](Nc1cc(-c2cnc(NC(=O)C3CC3)cn2)cnc1C#N)C(=O)NCC(F)(F)F [Example 116, (S)-N-(5-(6-cyano-5-((1-oxo-1-((2,2,2-trifluoroethyl)amino)propan-2-yl)amino)pyridin-3-yl)pyrazin-2-yl)cyclopropanecarboxamide]",7.3
21,"C[C@H](Nc1cc(-c2cnc(NC(=O)C3CC3)cn2)cnc1C#N)C(=O)NCC(C)(F)F [Example 117, (S)-N-(5-(6-cyano-5-((1-((2,2-difluoropropyl)amino)-1-oxopropan-2-yl)amino)pyridin-3-yl)pyrazin-2-yl)cyclopropanecarboxamide]",7.0
22,"C[C@H](Nc1cc(-c2cnc(NC(=O)C3CC3)cn2)cnc1C#N)C(=O)NC1CC1(F)F (stereo partly drawn) [Example 118, N-(5-(6-cyano-5-(((2S)-1-((2,2-difluorocyclopropyl)amino)-1-oxopropan-2-yl)amino)pyridin-3-yl)pyrazin-2-yl)cyclopropanecarboxamide]",6.8
23,"CC(NC(=O)[C@H](C)Nc1cc(-c2cnc(NC(=O)C3CC3)cn2)cnc1C#N)C(F)F (stereo partly drawn) [Example 119, N-(5-(6-cyano-5-(((2S)-1-((1,1-difluoropropan-2-yl)amino)-1-oxopropan-2-yl)amino)pyridin-3-yl)pyrazin-2-yl)cyclopropanecarboxamide]",8.1
24,"CC[C@H](Nc1cc(-c2cnc(NC(=O)C3CC3)cn2)cnc1C#N)C(=O)NCC(F)F [Example 120, (S)-N-(5-(6-cyano-5-((1-((2,2-difluoroethyl)amino)-1-oxobutan-2-yl)amino)pyridin-3-yl)pyrazin-2-yl)cyclopropanecarboxamide]",7.2
25,"N#Cc1ncc(-c2cnc(NC(=O)C3CC3)cn2)cc1NCC(N)=O [Example 121, N-(5-(5-((2-amino-2-oxoethyl)amino)-6-cyanopyridin-3-yl)pyrazin-2-yl)cyclopropanecarboxamide]",5.6
26,"CN(C)C(=O)CNc1cc(-c2cnc(NC(=O)C3CC3)cn2)cnc1C#N [Example 122, N-(5-(6-cyano-5-((2-(dimethylamino)-2-oxoethyl)amino)pyridin-3-yl)pyrazin-2-yl)cyclopropanecarboxamide]",7.0

# Same assay, conditions: -log(IC50), IC50 molar; 3 nM TBK1, 25 μM ATP, 60 min RT; read-out: TBK1 Inhibition (pIC50) (converted)
row,SMILES,IC50 [µM]
1,"N#Cc1ncc(-c2cnc(NC(=O)C3CC3)cn2)cc1NCC(=O)N1CCO[C@@H]1C(F)(F)F [Example 95, (R)-N-(5-(6-cyano-5-((2-oxo-2-(2-(trifluoromethyl)oxazolidin-3-yl)ethyl)amino)pyridin-3-yl)pyrazin-2-yl)cyclopropanecarboxamide]",0.631
2,"N#Cc1ncc(-c2cnc(NC(=O)C3CC3)cn2)cc1NCC(=O)N1CCO[C@H]1C(F)(F)F [Example 96, (S)-N-(5-(6-cyano-5-((2-oxo-2-(2-(trifluoromethyl)oxazolidin-3-yl)ethyl)amino)pyridin-3-yl)pyrazin-2-yl)cyclopropanecarboxamide]",0.0158
3,"N#Cc1ncc(-c2cnc(NC(=O)C3CC3)cn2)cc1NCC(=O)N1CCOC[C@@H]1C(F)(F)F [Example 101, (R)-N-(5-(6-cyano-5-((2-oxo-2-(3-(trifluoromethyl)morpholino)ethyl)amino)pyridin-3-yl)pyrazin-2-yl)cyclopropanecarboxamide]",0.2
